Experimental data as given in patent US20260285850A1, “SUBSTITUTED OXAZOLIDINONES AND IMIDAZOLINONES AS HERBICIDES” (FMC CORPORATION, priority 2023, published 2026).

Key:
Format in all cases: in vivo
[1] = tested on: barnyardgrass (Echinochloa crus-galli); test: Test A preemergence soil spray, visual injury rating 0-100; conditions: 10 days
Outline: (§1)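 Plants in a loam and sand soil blend were treated with each test chemical, in a non-phytotoxic solvent system including surfactant, either sprayed on seeded soil before emergence or applied after emergence at the one- to two-leaf stage. Ten days later in the greenhouse, plants were compared with untreated controls and visually rated from 0 (no effect) to 100 (complete control).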

[2] = tested on: blackgrass (Alopecurus myosuroides); test: as above; conditions: 10 days
Outline: as §1

corn (Zea mays) [3] = test: as above; conditions: 10 days
Outline: as §1

[4] = tested on: green foxtail (Setaria viridis); test: as above; conditions: 10 days
Outline: as §1

kochia (Bassia scoparia) [5] = test: as above; conditions: 10 days
Outline: as §1

[6] = tested on: oat, wild (wild oat, Avena fatua); test: as above; conditions: 10 days
Outline: as §1

[7] = tested on: palmer (palmer amaranth, palmer pigweed, Amaranthus palmeri); test: as above; conditions: 10 days
Outline: as §1

[8] = tested on: ragweed (common ragweed, Ambrosia artemisiifolia); test: as above; conditions: 10 days
Outline: as §1

[9] = tested on: ryegrass, Italian (italian ryegrass, Lolium multiflorum); test: as above; conditions: 10 days
Outline: as §1

soybean (Glycine max) [10] = test: as above; conditions: 10 days
Outline: as §1

[11] = tested on: wheat (Triticum aestivum); test: as above; conditions: 10 days
Outline: as §1

[12] = tested on: barnyardgrass (Echinochloa crus-galli); test: Test A postemergence application, visual injury rating 0-100
Outline: as §1

[13] = tested on: blackgrass (Alopecurus myosuroides); test: as above
Outline: as §1

corn (Zea mays) [14] = test: as above
Outline: as §1

[15] = tested on: galium (catchweed bedstraw, Galium aparine); test: as above; conditions: 62 g ai/ha, postemergence, 10 days, 0 = no effect, 100 = complete control
Outline: as §1

[16] = tested on: green foxtail (Setaria viridis); test: as above
Outline: as §1

[17] = tested on: horseweed (Erigeron canadensis); test: as above
Outline: as §1

kochia (Bassia scoparia) [18] = test: as above
Outline: as §1

[19] = tested on: oat, wild (wild oat, Avena fatua); test: as above
Outline: as §1

[20] = tested on: palmer (palmer amaranth, palmer pigweed, Amaranthus palmeri); test: as above
Outline: as §1

[21] = tested on: ragweed (common ragweed, Ambrosia artemisiifolia); test: as above
Outline: as §1

[22] = tested on: ryegrass, Italian (italian ryegrass, Lolium multiflorum); test: as above
Outline: as §1

soybean (Glycine max) [23] = test: as above
Outline: as §1

[24] = tested on: wheat (Triticum aestivum); test: as above
Outline: as §1

[25] = tested on: barnyardgrass (Echinochloa crusgalli); test: Test B flooded paddy test, visual plant response rating 0-100; conditions: 250 g ai/ha, Flood, applied to paddy water, evaluated after 13 days
Outline: (§2)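 Plants were grown to the 2-leaf stage, then pots were flooded to 3 cm above the soil and compound was applied directly to the paddy water, with that depth kept throughout.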

[26] = tested on: ducksalad (Heteranthera limosa); test: as above; conditions: 250 g ai/ha, Flood, applied to paddy water, evaluated after 13 days
Outline: as §2

rice (Oryza sativa) = test: as above; conditions: 250 g ai/ha, Flood, applied to paddy water, evaluated after 13 days
Outline: as §2

[27] = tested on: sedge, umbrella (small-flower umbrella sedge, Cyperus difformis); test: as above; conditions: 250 g ai/ha, Flood, applied to paddy water, evaluated after 13 days
Outline: as §2

[28] = 62 g ai/ha, 0 = no effect, 100 = complete control
[29] = 62 g ai/ha, postemergence, 10 days, 0 = no effect, 100 = complete control
[30] = Postemergence, 16 g ai/ha, greenhouse 10 days, 0 no effect, 100 complete control

For `CC1(C(=O)NC2CC=C(C(=O)O)C2)CN(c2cc(F)cc(Cl)c2)C(=O)O1` (stereo not drawn) [Compound 160], the “Barnyardgrass plant response rating” value ([1]; 16 g ai/ha, 0 to 100 scale) was 0, the “Barnyardgrass plant response rating (0-100)” value [1, 28] was 0 and the “Blackgrass plant response rating” value ([2]; 16 g ai/ha, 0 to 100 scale) was 0. The “Blackgrass plant response rating (0-100)” value [2, 28] was 0, the “Corn plant response rating” value (corn (Zea mays) [3]; 16 g ai/ha, 0 to 100 scale) was 0 and the “Corn plant response rating (0-100)” value (corn (Zea mays) [3]; [28]) was 0. For the same compound, the “Foxtail, Green plant response rating” value ([4]; 16 g ai/ha, 0 to 100 scale) was 0, the “Foxtail, Green plant response rating (0-100)” value [4, 28] was 0 and the “Kochia plant response rating” value (kochia (Bassia scoparia) [5]; 16 g ai/ha, 0 to 100 scale) was 0. The “Kochia plant response rating (0-100)” value (kochia (Bassia scoparia) [5]; [28]) was 0, the “Oat, Wild plant response rating” value ([6]; 16 g ai/ha, 0 to 100 scale) was 0 and the “Oat, Wild plant response rating (0-100)” value [6, 28] was 0. For the same compound, the “Pigweed, Palmer plant response rating” value ([7]; 16 g ai/ha, 0 to 100 scale) was 0, the “Pigweed, Palmer plant response rating (0-100)” value [7, 28] was 0 and the “Ragweed plant response rating” value ([8]; 16 g ai/ha, 0 to 100 scale) was 0. The “Ragweed plant response rating (0-100)” value [8, 28] was 0, the “Ryegrass, Italian plant response rating” value ([9]; 16 g ai/ha, 0 to 100 scale) was 0 and the “Ryegrass, Italian plant response rating (0-100)” value [9, 28] was 0. The “Soybean plant response rating” value (soybean (Glycine max) [10]; 16 g ai/ha, 0 to 100 scale) was 0, the “Soybean plant response rating (0-100)” value (soybean (Glycine max) [10]; [28]) was 0 and the “Wheat plant response rating” value ([11]; 16 g ai/ha, 0 to 100 scale) was 0. For the same compound, the “Wheat plant response rating (0-100)” value [11, 28] was 0, the “Barnyardgrass plant response rating (0-100)” value [12, 29] was 0 and the “Barnyardgrass plant response rating (0 to 100 scale)” value [12, 30] was 0. The “Blackgrass plant response rating (0-100)” value [13, 29] was 0, the “Blackgrass plant response rating (0 to 100 scale)” value [13, 30] was 0 and the “Corn plant response rating (0-100)” value (corn (Zea mays) [14]; [29]) was 0. For the same compound, the “Corn plant response rating (0 to 100 scale)” value (corn (Zea mays) [14]; [30]) was 0, the “Galium plant response rating (0-100)” value [15] was 0 and the “Foxtail, Green plant response rating (0-100)” value [16, 29] was 0. For the same compound, the “Foxtail, Green plant response rating (0 to 100 scale)” value [16, 30] was 0, the “Horseweed plant response rating (0-100)” value [17, 29] was 0 and the “Horseweed plant response rating (0 to 100 scale)” value [17, 30] was 0. The “Kochia plant response rating (0-100)” value (kochia (Bassia scoparia) [18]; [29]) was 0, the “Kochia plant response rating (0 to 100 scale)” value (kochia (Bassia scoparia) [18]; [30]) was 0 and the “Oat, Wild plant response rating (0-100)” value [19, 29] was 0. The “Oat, Wild plant response rating (0 to 100 scale)” value [19, 30] was 0, the “Pigweed, Palmer plant response rating (0-100)” value [20, 29] was 0 and the “Pigweed, Palmer plant response rating (0 to 100 scale)” value [20, 30] was 0. The “Ragweed plant response rating (0-100)” value [21, 29] was 0, the “Ragweed plant response rating (0 to 100 scale)” value [21, 30] was 0 and the “Ryegrass, Italian plant response rating (0-100)” value [22, 29] was 0. The “Ryegrass, Italian plant response rating (0 to 100 scale)” value [22, 30] was 0, the “Soybean plant response rating (0-100)” value (soybean (Glycine max) [23]; [29]) was 0 and the “Soybean plant response rating (0 to 100 scale)” value (soybean (Glycine max) [23]; [30]) was 0. For the same compound, the “Wheat plant response rating (0-100)” value [24, 29] was 0, the “Wheat plant response rating (0 to 100 scale)” value [24, 30] was 0 and the “Plant response rating, Barnyardgrass (0 to 100 scale, 0 is no effect and 100 is complete control)” value [25] was 0. For the same compound, the “Plant response rating, Ducksalad (0 to 100 scale, 0 is no effect and 100 is complete control)” value [26] was 55, the “Plant response rating, Rice (0 to 100 scale, 0 is no effect and 100 is complete control)” value (rice (Oryza sativa)) was 0 and the “Plant response rating, Sedge, Umbrella (0 to 100 scale, 0 is no effect and 100 is complete control)” value [27] was 25.
